In patent publication EP0354453A2, “Antimicrobial agent for animals” (priority 1988, dated 1990):

What was measured:
Mycoplasma gallisepticum = test: Effect of oral administration on chicken inoculated with Mycoplasma gallisepticum; assay type: in vivo; conditions: for Chickens developing disease in air sac (naked eye observation) / No. of dead chickens: 5 tested chickens
Procedure: Mycoplasma gallisepticum cells collected from chickens having respiratory Mycoplasma infection were cultured for 3 days in a Frey liquid media for Mycoplasma. 0.2 ml of this culture broth was injected into the trachea of chickens of an average body weight of 80 g using a 1 ml disposable injection needle. Beginning from the next day following the inoculation, feeds to which Compound (1) had been added in the amount of 100 ppm, 75 ppm, or 50 ppm were freely given to the chickens for 5 days. Following the administration of Compound (1) the chickens were given feed containing no drug for a further 5 days. The surviving chickens were sacrificed and dissected. After examination of the degree of disease in the air sac, Mycoplasma gallisepticum in the infraorbital sinus, trachea, lung, and air sac were determined. […] TABLE 6 […]

Escherichia coli = test: Effect of oral administration on chicken inoculated with Escherichia coli; assay type: in vivo; conditions: for Chickens developing disease in air sac (naked eye observation) / No. of dead chickens: 5 tested chickens
Procedure: Escherichia coli cells collected from infected chicken were cultured overnight in a trypticase soy broth (BBL). 0.2 ml of this culture broth was injected into the trachea of chickens of average body weight of 80 g using a 1 ml disposable injection needle. Beginning 2 hours after the inoculation, feeds to which Compound (1) had been added in the amount of 50 ppm, 25 ppm, or 12.5 ppm were freely given to the chickens for 5 days. Following the administration of Compound (1) the chickens were given feed with no addition of drug for 5 days. The surviving chickens were sacrificed and dissected. After examination of the degree of disease in the air sac, Escherichia coli in the trachea, lung, and air sac were quantitatively determined. […]

[1] = tested on: pathogenic bacteria derived from animals; test: in vitro antimicrobial activity, Part 1, overall comparison; assay type: cell-based; conditions: summary of Table 2
Procedure: (§1) Test microorganisms listed in Table 2 were cultured overnight in heart infusion nutrient broth (produced by Eiken Chemical Co., Ltd.). Culture broth containing about 10⁸/ml cells was diluted to a volume of 100 times. An aliquot (about 0.05 ml) of the diluted broth was inoculated onto a Mueller Hinton agar plate (produced by Eiken Chemical Co., Ltd.) to which Compound No. 1 was added in a prescribed concentration. […]

[2] = tested on: Salmonella typhimurium 595; test: in vitro antimicrobial activity (MIC), agar dilution, Part 1; assay type: cell-based; conditions: Salmonella enterica; Salmonella typhimurium 595, Pig; Mueller Hinton agar, 37°C, 18-24 hours
Procedure: as §1

Escherichia coli 164 = test: as above; assay type: cell-based; conditions: Escherichia coli 164, Pig; Mueller Hinton agar, 37°C, 18-24 hours
Procedure: as §1

[3] = tested on: Bordetella bronchiaseptica AR3; test: as above; assay type: cell-based; conditions: Bordetella bronchiaseptica AR3, Pig; Mueller Hinton agar, 37°C, 18-24 hours
Procedure: as §1

[4] = tested on: Staphylococcus aureus Aichi 2; test: as above; assay type: cell-based; conditions: AICHI2; Staphylococcus aureus Aichi 2, Chicken; Mueller Hinton agar, 37°C, 18-24 hours
Procedure: as §1

[5] = tested on: Salmonella typhimurium 101; test: as above; assay type: cell-based; conditions: Salmonella enterica; Salmonella typhimurium 101, Chicken; Mueller Hinton agar, 37°C, 18-24 hours
Procedure: as §1

Escherichia coli 442 = test: as above; assay type: cell-based; conditions: Escherichia coli 442, Chicken; Mueller Hinton agar, 37°C, 18-24 hours
Procedure: as §1

Escherichia coli 15-4 = test: as above; assay type: cell-based; conditions: 154; Escherichia coli 15-4, Cow; Mueller Hinton agar, 37°C, 18-24 hours
Procedure: as §1

[6] = tested on: Mycoplasma gallisepticum Strain 2012; test: in vitro antimicrobial activity (MIC) in Frey liquid medium; assay type: cell-based; conditions: Mycoplasmoides gallisepticum, STRAIN2012; Mycoplasma gallisepticum Strain 2012, from chicken; Frey liquid medium, 37°C, 3-5 days; read-out: MIC
Procedure: (§2) Various test strains of Mycoplasma gallisepticum derived from chicken were cultured in a Frey liquid medium for Mycoplasma for 3 days. The culture broth containing about 10⁸/ml cells was diluted to a volume of 100 times. The diluted broth was inoculated into Frey liquid media for Mycoplasma to which the compounds of this invention were added at prescribed concentrations. The cells were incubated at 37°C for 3-5 days while daily observing the color of the media. Among the culture broths maintaining yellow color at the time when the control to which no test compound was added turned red, the concentration of the broth having the minimum concentration was taken as the MIC of the compound.

[7] = tested on: Mycoplasma gallisepticum Strain DP-1047; test: as above; assay type: cell-based; conditions: Mycoplasmoides gallisepticum; Mycoplasma gallisepticum Strain DP-1047, from chicken; Frey liquid medium, 37°C, 3-5 days; read-out: MIC
Procedure: as §2

[8] = tested on: Mycoplasma gallisepticum Strain T-7; test: as above; assay type: cell-based; conditions: Mycoplasmoides gallisepticum, Mycoplasma gallisepticum Strain T-7, from chicken, 37°C, 3-5 days
Procedure: as §2

[9] = tested on: Mycoplasma gallisepticum Strain 2004; test: as above; assay type: cell-based; conditions: Mycoplasmoides gallisepticum, STRAIN2004; Mycoplasma gallisepticum Strain 2004, from chicken; Frey liquid medium, 37°C, 3-5 days; read-out: MIC
Procedure: as §2

[10] = tested on: Mycoplasma gallisepticum Strain T-2; test: as above; assay type: cell-based; conditions: Mycoplasmoides gallisepticum; Mycoplasma gallisepticum Strain T-2, from chicken; Frey liquid medium, 37°C, 3-5 days; read-out: MIC
Procedure: as §2

[11] = tested on: Bordetella bronchiaseptica OKM-1; test: in vitro antimicrobial activity (MIC), agar dilution, Part 2; assay type: cell-based; conditions: Bordetella, OKM1, Bordetella bronchiaseptica OKM-1, Pig; read-out: MIC
Procedure: as §1
(§3) MIC of Compounds (1)-(8) against various pathogenic bacteria derived from animals was determined in the same manner as in Example 1.

Escherichia coli 139 = test: as above; assay type: cell-based; conditions: Escherichia coli 139, Cow; read-out: MIC
Procedure: as §1, §3

[12] = tested on: Salmonella typhimurium 103; test: as above; assay type: cell-based; conditions: Salmonella enterica; Salmonella typhimurium 103, Chicken; read-out: MIC
Procedure: as §1, §3

Escherichia coli 881 = test: as above; assay type: cell-based; conditions: Escherichia coli, 881, Escherichia coli 881, Pig; read-out: MIC
Procedure: as §1, §3

[13] = tested on: Salmonella typhimurium 569; test: as above; assay type: cell-based; conditions: Salmonella enterica, TYPHIMURIUM, Salmonella typhimurium 569, Pig; read-out: MIC
Procedure: as §1, §3

Escherichia coli S6W = test: as above; assay type: cell-based; conditions: Escherichia coli, S6W, Escherichia coli S6W, Chicken; read-out: MIC
Procedure: as §1, §3

[14] = tested on: Staphylococcus aureus Yamaguchi 6; test: as above; assay type: cell-based; conditions: Staphylococcus aureus Yamaguchi 6, Chicken; read-out: MIC
Procedure: as §1, §3

Q: For `C[C@H]1COc2c(N3CCN(C)CC3)c(F)cc3c(=O)c(C(=O)O)cn1c23` [Compound (1), 3S-9-fluoro-2,3-dihydro-3-methyl-10-(4-methyl-1-piperazinyl)-7-oxo-7H-pyrido[1,2,3-de] [1,4]benzoxazine-6-carboxylic acid hemihydrate], which “Mycoplasma gallisepticum collected in Air sac” value (Mycoplasma gallisepticum; 50 ppm in feed for 5 days) is on record?
A: The value was 2.32 Logarithmic number of collected cells per 1 g of tissue.

Q: What about the “Mycoplasma gallisepticum collected in Infraorbital sinus” value (Mycoplasma gallisepticum; 50 ppm in feed for 5 days) of the same compound?
A: Its value is 0/5.

Q: What about the “Mycoplasma gallisepticum collected in Lung” value (Mycoplasma gallisepticum; 50 ppm in feed for 5 days) of the same compound?
A: Its value is 0 Logarithmic number of collected cells per 1 g of tissue.

Q: What about the “Mycoplasma gallisepticum collected in Trachea” value (Mycoplasma gallisepticum; 50 ppm in feed for 5 days) of the same compound?
A: The value was 0 Logarithmic number of collected cells per 1 g of tissue.

Q: And the “Chickens developing disease in air sac (naked eye observation)” value (“Chickens developing disease in air sac” for short) (Mycoplasma gallisepticum; 50 ppm in feed for 5 days)?
A: Its value is 0.

Q: What about the “No. of dead chickens” value (Mycoplasma gallisepticum; 50 ppm in feed for 5 days) of the same compound?
A: Its value is 0.

Q: And the “Mycoplasma gallisepticum collected in Air sac” value (Mycoplasma gallisepticum; 75 ppm in feed for 5 days)?
A: Its value is 0 Logarithmic number of collected cells per 1 g of tissue.

Q: And the “Mycoplasma gallisepticum collected in Infraorbital sinus” value (Mycoplasma gallisepticum; 75 ppm in feed for 5 days)?
A: The value was 0/5.

Q: And the “Mycoplasma gallisepticum collected in Lung” value (Mycoplasma gallisepticum; 75 ppm in feed for 5 days)?
A: Its value is 0 Logarithmic number of collected cells per 1 g of tissue.

Q: What about the “Mycoplasma gallisepticum collected in Trachea” value (Mycoplasma gallisepticum; 75 ppm in feed for 5 days) of the same compound?
A: The value was 0 Logarithmic number of collected cells per 1 g of tissue.

Q: And the “Chickens developing disease in air sac” value (Mycoplasma gallisepticum; 75 ppm in feed for 5 days)?
A: The value was 0.

Q: And the “No. of dead chickens” value (Mycoplasma gallisepticum; 75 ppm in feed for 5 days)?
A: Its value is 0.

Q: And the “Mycoplasma gallisepticum collected in Air sac” value (Mycoplasma gallisepticum; 100 ppm in feed for 5 days)?
A: The value was 0 Logarithmic number of collected cells per 1 g of tissue.

Q: And the “Mycoplasma gallisepticum collected in Infraorbital sinus” value (Mycoplasma gallisepticum; 100 ppm in feed for 5 days)?
A: Its value is 0/5.

Q: And the “Mycoplasma gallisepticum collected in Lung” value (Mycoplasma gallisepticum; 100 ppm in feed for 5 days)?
A: The value was 0 Logarithmic number of collected cells per 1 g of tissue.

Q: What about the “Mycoplasma gallisepticum collected in Trachea” value (Mycoplasma gallisepticum; 100 ppm in feed for 5 days) of the same compound?
A: Its value is 0 Logarithmic number of collected cells per 1 g of tissue.

Q: And the “Chickens developing disease in air sac” value (Mycoplasma gallisepticum; 100 ppm in feed for 5 days)?
A: Its value is 0.

Q: What about the “No. of dead chickens” value (Mycoplasma gallisepticum; 100 ppm in feed for 5 days) of the same compound?
A: Its value is 0.

Q: And the “Escherichia coli collected in Air sac” value (Escherichia coli; 12.5 ppm in feed for 5 days)?
A: The value was 3.99 Logarithmic number of collected cells per 1 g of tissue.

Q: What about the “Escherichia coli collected in Lung” value (Escherichia coli; 12.5 ppm in feed for 5 days) of the same compound?
A: Its value is 2.78 Logarithmic number of collected cells per 1 g of tissue.

Q: And the “Escherichia coli collected in Trachea” value (Escherichia coli; 12.5 ppm in feed for 5 days)?
A: The value was 2.78 Logarithmic number of collected cells per 1 g of tissue.

Q: What about the “Chickens developing disease in air sac” value (Escherichia coli; 12.5 ppm in feed for 5 days) of the same compound?
A: Its value is 3.

Q: What about the “No. of dead chickens” value (Escherichia coli; 12.5 ppm in feed for 5 days) of the same compound?
A: The value was 1.

Q: And the “Escherichia coli collected in Air sac” value (Escherichia coli; 25 ppm in feed for 5 days)?
A: Its value is 0 Logarithmic number of collected cells per 1 g of tissue.

Q: And the “Escherichia coli collected in Lung” value (Escherichia coli; 25 ppm in feed for 5 days)?
A: Its value is 0 Logarithmic number of collected cells per 1 g of tissue.

Q: What about the “Escherichia coli collected in Trachea” value (Escherichia coli; 25 ppm in feed for 5 days) of the same compound?
A: The value was 0 Logarithmic number of collected cells per 1 g of tissue.

Q: And the “Chickens developing disease in air sac” value (Escherichia coli; 25 ppm in feed for 5 days)?
A: Its value is 1.

Q: What about the “No. of dead chickens” value (Escherichia coli; 25 ppm in feed for 5 days) of the same compound?
A: The value was 0.

Q: What about the “Escherichia coli collected in Air sac” value (Escherichia coli; 50 ppm in feed for 5 days) of the same compound?
A: Its value is 0 Logarithmic number of collected cells per 1 g of tissue.

Q: And the “Escherichia coli collected in Lung” value (Escherichia coli; 50 ppm in feed for 5 days)?
A: Its value is 0 Logarithmic number of collected cells per 1 g of tissue.

Q: What about the “Escherichia coli collected in Trachea” value (Escherichia coli; 50 ppm in feed for 5 days) of the same compound?
A: The value was 0 Logarithmic number of collected cells per 1 g of tissue.

Q: What about the “Chickens developing disease in air sac” value (Escherichia coli; 50 ppm in feed for 5 days) of the same compound?
A: The value was 0.

Q: What about the “No. of dead chickens” value (Escherichia coli; 50 ppm in feed for 5 days) of the same compound?
A: The value was 0.

Q: What about the “antimicrobial activities compared with Ofloxacin” value [1] of the same compound?
A: The value was “higher antimicrobial activities than its known racemic isomer (Ofloxacin)”.

Q: What about the MIC [2] of the same compound?
A: Its MIC is 0.05 µg/mL.

Q: What about the MIC (Escherichia coli 164) of the same compound?
A: The MIC was 0.05 µg/mL.

Q: And the MIC [3]?
A: The MIC was 0.2 µg/mL.

Q: And the MIC [4]?
A: The MIC was 0.1 µg/mL.

Q: And the MIC [5]?
A: The MIC was 0.025 µg/mL.

Q: And the MIC (Escherichia coli 442)?
A: The MIC was 0.025 µg/mL.

Q: And the MIC (Escherichia coli 15-4)?
A: Its MIC is 0.05 µg/mL.

Q: And the MIC [6]?
A: Its MIC is 0.025 µg/mL.

Q: What about the MIC [7] of the same compound?
A: The MIC was 0.025 µg/mL.

Q: And the MIC [8]?
A: Its MIC is 0.05 µg/mL.

Q: What about the MIC [9] of the same compound?
A: The MIC was 0.0125 µg/mL.

Q: And the MIC [10]?
A: The MIC was 0.05 µg/mL.

Q: And the MIC [11]?
A: The MIC was 0.2 µg/mL.

Q: What about the MIC (Escherichia coli 139) of the same compound?
A: Its MIC is 0.05 µg/mL.

Q: And the MIC [12]?
A: The MIC was 0.05 µg/mL.

Q: And the MIC (Escherichia coli 881)?
A: Its MIC is 0.05 µg/mL.

Q: What about the MIC [13] of the same compound?
A: The MIC was 0.05 µg/mL.

Q: What about the MIC (Escherichia coli S6W) of the same compound?
A: The MIC was 0.025 µg/mL.

Q: And the MIC [14]?
A: The MIC was 0.05 µg/mL.
